Experimental data from patent US20130029991A1, “New Phenylsulfamoyl Benzamide Derivatives as Bradykinin Antagonists” (priority 2006, published 2013).
Where a name gives a salt, the structure may show the parent alone.

Columns and labels:
[1] = target: T1, human recombinant bradykinin B1 receptor (Homo sapiens, UniProt P46663); experiment: Human recombinant bradykinin B1 receptor binding; conditions: CHO cell membranes, [3H]-[Des-Arg10] Kallidin radioligand; read-out: B1 binding
T1 construct: host or cells: CHO cells
T1 sequence (P46663 1-353): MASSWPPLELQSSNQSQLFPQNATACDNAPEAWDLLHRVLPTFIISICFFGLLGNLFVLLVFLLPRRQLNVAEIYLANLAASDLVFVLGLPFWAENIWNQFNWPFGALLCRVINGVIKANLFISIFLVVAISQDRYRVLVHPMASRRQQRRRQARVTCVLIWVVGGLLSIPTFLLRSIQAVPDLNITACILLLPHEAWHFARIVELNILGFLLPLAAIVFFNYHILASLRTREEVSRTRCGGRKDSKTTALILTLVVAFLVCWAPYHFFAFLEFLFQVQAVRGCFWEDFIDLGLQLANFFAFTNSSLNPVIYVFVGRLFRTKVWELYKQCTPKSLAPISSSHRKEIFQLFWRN
Description: 1. Human Recombinant Bradykinin B1 Receptor Binding
Binding assays were carried out on human recombinant bradykinin) receptors (expressed in CHO cells) according to the Euroscreen Technical Data Sheet (Cat.No.:ES-091). 20 μg protein/tube was incubated with [3,4-prolyl-3,4-^3H(N)]-[Des-Arg^10] Kallidin as radioligand. Non specific binding was determined in the presence of 10 μM Lys-des-Arg^9-Bradykinin. The final incubation volume was 250 μl. Samples were incubated for 15 min. at 25° C. then were rapidly vacuum filtered through GF/B filters presoaked for at least 1 h in 0.5% PEI. Radioactivity was determined by liquid scintillation spectroscopy.

[2] = target: T2, recombinant human B1 receptors (Homo sapiens, UniProt P46663); experiment: Functional assay: antagonist potency by cytosolic calcium measurement (fluo-4, plate reader fluorimeter) in CHO-B1 cells; type: cell-based; conditions: CHO-B1 cells, inhibition of LysDABK (EC80)-evoked [Ca2+]i elevation; read-out: B1 func.
T2 construct: host or cells: CHO (CHO-B1)
T2 sequence (P46663 1-353): T1 sequence (P46663 1-353)
Description: Assessment of Antagonist Potency at B1 and B2 Receptors In Vitro by Measurement of Cytosolic Calcium Ion Concentration with a Plate Reader Fluorimeter in Cells Expressing Recombinant Human B1 or B2 Receptors
Chinese hamster ovary (CHO) cells stably expressing recombinant human B1 (CHO-B1, Euroscreen) or B2 (CHO-B2, Perkin-Elmer) receptors were cultured in Dulbecco's Modified Eagle's Medium (DMEM) containing 10% Fetal Calf Serum (FCS), 100 U/ml penicillin, 0.1 mg/ml streptomycin, 0.25 μg/ml amphotericin B, 1% Minimum Essential Medium Eagle (MEM), non essential amino acid solution, […], 1% pyruvate (for the B2 cell line). Cells were kept at 37° C. in a humidified incubator in an atmosphere of 5% CO2/95% air and were passaged 1:4 three times a week. Cells were plated at 1.5-2.5×10^4 cell/well on standard 96-well microplates, measurements of cytosolic calcium ion concentration ([Ca^2+]i) were carried out 1-2 days after cell plating.
Measurements of [Ca^2+]i were carried out on CHO-B1 and CHO-B2 cells stably expressing human B1 and B2 receptors, respectively. Cells were grown in standard 96-well microplates and before the measurement were loaded with a fluorescent Ca^2+-sensitive dye, fluo-4/AM (2 μM): after removing the culture medium the dye was added to the cells (dissolved in assay buffer: 145 mM NaCl, 5 mM KCl, 2 mM MgCl2, 2 mM CaCl2, 10 mM HEPES, 20 mM D-glucose, 2 mM probenecid, 100 μl/well) and cells were incubated at 37° C. in a humidified incubator in an atmosphere of 5% CO2/95% air for 40-120 min. To stop dye loading cells were washed twice with assay buffer. After washing, various concentrations of the test compounds (diluted in extracellular medium from a DMSO stock solution, final DMSO concentration was <0.1%) or buffer were added to each well depending on the experimental setup. After incubation at 37° C. for 20-25 min. baseline and agonist-evoked changes of [Ca^2+]i were measured column by column with a plate reader fluorimeter (Fluoroskan Ascent, Labsystems). Excitation and detection of emission was carried out from the bottom of the plate. Filters used for Fluo-4: excitation filter—485 nm, emission filter—538 nm. The whole measurement process was performed at 37° C. and was controlled by custom software Inhibitory potency of the test compounds was assessed by measuring the reduction in the agonist-evoked [Ca^2+]i-elevation in the presence of different concentrations of the compounds. The agonists were LysDABK for CHO-B1, and bradykinin for CHO-B2 cells. Agonists were applied at an EC80 concentration, the EC80-values were derived from daily determined dose-response curves. Fluorescence data were expressed as ΔF/F (fluorescence change normalized to baseline). All treatments on a single plate were measured in multiple wells. Data from all wells with the same treatment were averaged and the average values were used for analysis. Inhibitory potency of a compound at a single concentration point was expressed as percent inhibition of the control agonist response. Sigmoidal concentration-inhibition curves were fitted to the data (derived from at least three independent experiments) and IC50-values were determined as the concentration that produces half of the maximal inhibition caused by the compound.

SMILES	Ki [1]	IC50 [2]
CC1CCCCN1CCCNC(=O)CNC(=O)c1ccc(S(=O)(=O)Nc2ccccc2Oc2ccc(Cl)cc2Cl)cc1 (stereo not drawn) [Example 28, 4-[2-(2,4-Dichloro-phenoxy)-phenylsulfamoyl]-N-{[3-(2-methyl-piperidin-1-yl)-propylcarbamoyl]-methyl}-benzamide]	< 20 nM	< 20 nM
O=C(CNC(=O)c1ccc(S(=O)(=O)Nc2ccccc2Oc2ccc(Cl)cc2Cl)cc1)NCCCn1ccnc1 [Example 29, 4-[2-(2,4-Dichloro-phenoxy)-phenylsulfamoyl]-N-[(3-imidazol-1-yl-propylcarbamoyl)-methyl]-benzamide]	< 20 nM	< 20 nM
O=C(CNC(=O)c1ccc(S(=O)(=O)Nc2ccccc2Oc2ccc(Cl)cc2Cl)cc1)NCCN1CCOCC1 [Example 30, 4-[2-(2,4-Dichloro-phenoxy)-phenylsulfamoyl]-N-[(2-morpholin-4-yl-ethylcarbamoyl)-methyl]-benzamide]	< 20 nM	< 20 nM
O=C(CNC(=O)c1ccc(S(=O)(=O)Nc2ccccc2Oc2ccc(Cl)cc2Cl)cc1)NCCN1CCCC1 [Example 31, 4-[2-(2,4-Dichloro-phenoxy)-phenylsulfamoyl]-N-[(2-pyrrolidin-1-yl-ethylcarbamoyl)-methyl]-benzamide]	< 20 nM	< 20 nM
O=C(CNC(=O)c1ccc(S(=O)(=O)Nc2ccccc2Oc2ccc(Br)cc2Cl)cc1)NCC1CCNCC1 [Example 37, 4-[2-(4-Bromo-2-chloro-phenoxy)-phenylsulfamoyl]-N-{[(piperidin-4-ylmethyl)-carbamoyl]-methyl}-benzamide hydrochloride]	< 20 nM	< 20 nM
N=C(N)NCc1ccc(CNC(=O)CNC(=O)c2ccc(S(=O)(=O)Nc3ccccc3Oc3ccc(Cl)cc3Cl)cc2)cc1 [Example 39, 4-[2-(2,4-Dichloro-phenoxy)-phenylsulfamoyl]-N-[(4-guanidinomethyl-benzylcarbamoyl)-methyl]-benzamide hydrochloride]	< 20 nM	< 20 nM
O=C(CNC(=O)c1ccc(S(=O)(=O)Nc2ccccc2Oc2ccccc2)cc1)NCCCN1CCC(N2CCCCC2)CC1 [Example 48, N-[(3-[1,4′]Bipiperidinyl-r-yl-propylcarbamoyl)-methyl]-4-(2-phenoxy-phenylsulfamoyl)-benzamide]	< 20 nM	< 20 nM
O=C(CNC(=O)c1ccc(S(=O)(=O)Nc2ccccc2Oc2ccccc2)cc1)Nc1ccc(N2CCC(N3CCCCC3)CC2)cc1 [Example 49, N-[(4-[1,4′]Bipiperidinyl-1′-yl-phenylcarbamoyl)-methyl]-4-(2-phenoxy-phenylsulfamoyl)-benzamide]	< 20 nM	< 20 nM

More lines, now with the values ahead:

Ki [1]	IC50 [2]	SMILES
< 20 nM	< 20 nM	O=C(CNC(=O)c1ccc(S(=O)(=O)Nc2ccccc2Oc2ccc(Cl)cc2Cl)cc1)NCCC1CCNCC1 [Example 22, 4-[2-(2,4-Dichloro-phenoxy)-phenylsulfamoyl]-N-[(2-piperidin-4-yl-ethylcarbamoyl)-methyl]-benzamide acetate]
< 20 nM	< 20 nM	O=C(CNC(=O)c1ccc(S(=O)(=O)Nc2ccccc2Oc2ccc(Cl)cc2Cl)cc1)NCCN1CCCCC1 [Example 23, 4-[2-(2,4-Dichloro-phenoxy)-phenylsulfamoyl]-N-[(2-piperidin-1-yl-ethylcarbamoyl)-methyl]-benzamide]
< 20 nM	< 20 nM	CN(C)CCCNC(=O)CNC(=O)c1ccc(S(=O)(=O)Nc2ccccc2Oc2ccc(Cl)cc2Cl)cc1 [Example 25, 4-[2-(2,4-Dichloro-phenoxy)-phenylsulfamoyl]-N-[(3-dimethylamino-propylcarbamoyl)-methyl]-benzamide]
< 20 nM	< 20 nM	O=C(CNC(=O)c1ccc(S(=O)(=O)Nc2ccccc2Oc2ccc(Cl)cc2Cl)cc1)NCCCN1CCOCC1 [Example 27, 4-[2-(2,4-Dichloro-phenoxy)-phenylsulfamoyl]-N-[(3-morpholin-4-yl-propylcarbamoyl)-methyl]-benzamide]
